The source of these data is patent publication US7935674B2, “Indole derivatives” (Mitsubishi Tanabe Pharma Corporation, priority 2005, dated 2011).

For assay [1], the target named is T1, human SGLT2 (Homo sapiens, UniProt P31639).
T1 construct: expressed in transfected cells; host or cells: CHOK1 (Chinese hamster ovary) cells, kept under Geneticin selection
T1 sequence (P31639 1-672): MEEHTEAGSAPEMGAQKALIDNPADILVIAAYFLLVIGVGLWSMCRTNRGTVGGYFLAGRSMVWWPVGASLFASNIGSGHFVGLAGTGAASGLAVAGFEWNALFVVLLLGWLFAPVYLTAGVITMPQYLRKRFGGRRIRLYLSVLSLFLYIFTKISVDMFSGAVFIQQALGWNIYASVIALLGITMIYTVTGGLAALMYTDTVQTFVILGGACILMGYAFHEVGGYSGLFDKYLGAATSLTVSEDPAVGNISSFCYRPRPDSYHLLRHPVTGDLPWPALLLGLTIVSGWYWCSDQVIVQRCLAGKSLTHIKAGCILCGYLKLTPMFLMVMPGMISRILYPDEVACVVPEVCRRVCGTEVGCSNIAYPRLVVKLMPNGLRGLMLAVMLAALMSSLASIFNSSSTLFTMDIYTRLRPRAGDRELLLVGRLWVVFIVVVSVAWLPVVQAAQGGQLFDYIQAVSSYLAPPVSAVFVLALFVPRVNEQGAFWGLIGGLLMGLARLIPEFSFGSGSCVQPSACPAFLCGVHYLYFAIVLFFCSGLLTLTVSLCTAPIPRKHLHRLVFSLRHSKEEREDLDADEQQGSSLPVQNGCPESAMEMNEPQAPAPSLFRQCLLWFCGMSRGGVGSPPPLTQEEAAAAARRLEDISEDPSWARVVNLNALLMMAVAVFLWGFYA
Briefly: Assay for SGLT2 inhibition (14C-AMG uptake in CHOK1 cells expressing human SGLT2). The assay is classed as cell-based. Conditions: CHOK1 cells expressing human SGLT2; 14C-AMG uptake, 0.5 mM, 2 hours at 37° C.; read-out: IC50. The protocol: 1. Assay for SGLT2 Inhibition
Compounds described in the above examples were used for the SGLT2 inhibition assay.
CHOK1 cells expressing human SGLT2 were seeded in 24-well plates at a density of 400,000 cells/well in F-12 nutrient mixture (Ham's F-12) containing 10% fetal bovine serum, 400 μg/ml Geneticin, 50 units/ml sodium penicillin G (Gibco-BRL) and 50 μg/ml streptomycin sulfate. After 2 days of culture at 37° C. in a humidified atmosphere containing 5% CO2, cells were washed once with the assay buffer (137 mM NaCl, 5 mM KCl, 1 mM CaCl2, 1 mM MgCl2, 50 mM Hepes, and 20 mM Tris, pH 7.4) and incubated with 250 μl of the buffer containing test compounds for 10 min at 37° C. Test compounds were dissolved in DMSO. The final concentration of DMSO was 0.5%. The transport reaction was initiated by addition of 50 μl [^14C]-methyl-α-D-glucopyranoside (^14C-AMG) solution (final concentration, 0.5 mM). After incubation for 2 hours at 37° C., the uptake was stopped by aspiration of the incubation mixture, the cells were washed three times with ice-cold PBS. Then, cells were solubilized with 0.3 N NaOH and aliquots were taken for determination of radioactivity by a liquid scintillation counter. Nonspecific AMG uptake was defined as that which occurred in the presence of 100 μM of phlorizin, a specific inhibitor of sodium-dependent glucose cotransporter. Specific uptake was normalized for the protein concentrations measured by the method of Bradford. The 50% inhibitory concentration (IC50) values were calculated from dose-response curves by least square method.

Assay [2] relates to Sprague-Dawley (SD) rats. Briefly: Urinary glucose excretion test in rats. The assay is classed as in vivo, rat. The conditions noted are these: male SD rats; 30 mg/kg by oral gavage; urine collected for 24 hours; daily amount of glucose excreted in urine per individual. As to the method:
2. Urinary Glucose Excretion Test in Rats Test Compounds:
Compounds described in the above examples were used for the Urinary glucose excretion test in rats.
6-week-old male Sprague-Dawley (SD) rats were housed in individual metabolic cages with free access to food and water from 2 days prior to the experiment. On the morning of the experiment, rats were administered vehicle (0.2% carboxymethyl cellulose solution containing 0.2% Tween80) or test compounds (30 mg/kg) by oral gavage at a volume of 10 ml/kg. Then, urine of the rat was collected for 24 hours, and the urine volume was measured. Subsequently, the glucose concentration in urine was quantified using the enzymatic assay kit and the daily amount of glucose excreted in urine per individual was calculated.

Consider `OC[C@H]1O[C@@H](n2cc(Cc3ccc(C(F)F)cc3)c3c(F)cccc32)[C@H](O)[C@@H](O)[C@@H]1O` [Example 25, 3-(4-(Difluoromethyl)phenylmethyl)-4-fluoro-1-(β-D-gluco-pyranosyl)indole], for which, in assay [1], the IC50 worked out at 11 nM. Besides, the Urinary glucose entry in assay [2] is reported as “B (2400 mg>B≧2000 mg)”. In the case of `Cc1cccc2c1c(Cc1ccc(-c3cccs3)s1)cn2[C@@H]1O[C@H](CO)[C@@H](O)[C@H](O)[C@H]1O` [Example 51, 4-Methyl-3-(5-(2-thienyl)thiophen-2-yl-methyl)-1-(β-D-gluco-pyranosyl)indole], the IC50 in assay [1] amounted to 6.1 nM. `OC[C@H]1O[C@@H](n2cc(Cc3ccc(OCCCl)cc3)c3c(Cl)cccc32)[C@H](O)[C@@H](O)[C@@H]1O` [Example 19, 4-Chloro-3-(4-(2-chloroethyloxy)phenylmethyl)-1-(β-D-gluco-pyranosyl)indole]: in assay [1], the 50% inhibitory concentration (IC50) was 3.9 nM. Also, the Urinary glucose entry in assay [2] is on record as “A (A≧2400 mg)”.

As for `Cc1ccc(Cc2cn([C@@H]3O[C@H](CO)[C@@H](O)[C@H](O)[C@H]3O)c3cccc(F)c23)cc1` [Example 24, 4-Fluoro-3-(4-methylphenylmethyl)-1-(β-D-glucopyranosyl)-indole], in assay [1], the IC50 was 6.3 nM. `OC[C@H]1O[C@@H](n2cc(Cc3ccc4c(c3)CCO4)c3c(Cl)cccc32)[C@H](O)[C@@H](O)[C@@H]1O` [Example 21, 4-Chloro-3-(2,3-dihydrobenzo[b]furan-5-yl-methyl)-1-(β-D-glucopyranosyl)indole]: the IC50 in assay [1] is 1.8 nM. In the case of `OC[C@H]1O[C@@H](n2cc(Cc3ccc(OC(F)F)cc3)c3c(Cl)cccc32)[C@H](O)[C@@H](O)[C@@H]1O` [Example 31, 4-Chloro-3-(4-(difluoromethoxy)phenylmethyl)-1-(β-D-gluco-pyranosyl)indole], in assay [1], the 50% inhibitory concentration (IC50) was 2.6 nM. Also, the Urinary glucose result in assay [2] was “A (A≧2400 mg)”. In the case of `OC[C@H]1O[C@@H](n2cc(Cc3ccc(F)cc3)c3c(Cl)cccc32)[C@H](O)[C@@H](O)[C@@H]1O` [Example 27, 4-Chloro-3-(4-fluorophenylmethyl)-1-(β-D-glucopyranosyl)-indole], the IC50 in assay [1] amounted to 16 nM. The Urinary glucose result in assay [2] is “B (2400 mg>B≧2000 mg)”. On to `OC[C@H]1O[C@@H](n2cc(Cc3ccc(OCCF)cc3)c3c(Cl)cccc32)[C@H](O)[C@@H](O)[C@@H]1O` [Example 17, 4-Chloro-3-(4-(2-Fluoroethyloxy)phenylmethyl)-1-(β-D-glucopyranosyl)indole], for which the IC50 in assay [1] came to 2.5 nM.

As to `OC[C@H]1O[C@@H](n2cc(Cc3ccc(Br)cc3)c3c(Br)cccc32)[C@H](O)[C@@H](O)[C@@H]1O` [Example 41, 4-Bromo-3-(4-bromophenylmethyl)-1-(β-D-glucopyranosyl)indole], the IC50 in assay [1] stood at 12 nM. In addition, in assay [2], the Urinary glucose result is on record as “B (2400 mg>B≧2000 mg)”. For the compound `OC[C@H]1O[C@@H](n2cc(Cc3ccc(Br)s3)c3c(Cl)cccc32)[C@H](O)[C@@H](O)[C@@H]1O` [Example 7, 3-(5-Bromo-2-thienylmethyl)-4-chloro-1-(β-D-glucopyranosyl)-indole], the IC50 in assay [1] amounted to 5 nM. In addition, the Urinary glucose result in assay [2] is “B (2400 mg>B≧2000 mg)”. In the case of `Cc1cccc2c1c(Cc1ccc(-c3ccc(F)cc3)s1)cn2[C@@H]1O[C@H](CO)[C@@H](O)[C@H](O)[C@H]1O` [Example 48, 3-(5-(4-Fluorophenyl)thiophen-2-yl-methyl)-4-methyl-1-(β-D-glucopyranosyl)indole], the IC50 in assay [1] came out at 19 nM. For `CCOc1ccc(Cc2cn([C@@H]3O[C@H](CO)[C@@H](O)[C@H](O)[C@H]3O)c3cc(Cl)cc(Cl)c23)cc1` [Example 28, 4,6-Dichloro-3-(4-ethoxyphenylmethyl)-1-(β-D-glucopyranosyl)-indole], the IC50 in assay [1] amounted to 3.2 nM. In addition, in assay [2], the Urinary glucose result is “B (2400 mg>B≧2000 mg)”. `OC[C@H]1O[C@@H](n2cc(Cc3ccc(OCCF)cc3)c3c(F)cccc32)[C@H](O)[C@@H](O)[C@@H]1O` [Example 12, 4-Fluoro-3-(4-(2-fluoroethyloxy)phenylmethyl)-1-(β-D-gluco-pyranosyl)indole]: the IC50 in assay [1] is 4.1 nM. In the case of `CSc1ccc(Cc2cn([C@@H]3O[C@H](CO)[C@@H](O)[C@H](O)[C@H]3O)c3cccc(F)c23)cc1` [Example 10, 4-Fluoro-3-(4-(methylthio)phenylmethyl)-1-(β-D-gluco-pyranosyl)indole], the IC50 in assay [1] turned out to be 2.4 nM.

In the case of `COc1ccc(Cc2cn([C@@H]3O[C@H](CO)[C@@H](O)[C@H](O)[C@H]3O)c3cccc(F)c23)cc1` [Example 9, 4-Fluoro-3-(4-methoxyphenylmethyl)-1-(β-D-glucopyranosyl)-indole], the IC50 in assay [1] turned out to be 3.3 nM. Consider `CCc1ccc(Cc2cn([C@@H]3O[C@H](CO)[C@@H](O)[C@H](O)[C@H]3O)c3cccc(Cl)c23)s1` [Example 16, 4-Chloro-3-(5-ethylthiophen-2-yl-methyl)-1-(β-D-gluco-pyranosyl)indole], for which the 50% inhibitory concentration (IC50) in assay [1] came out at 2.1 nM.

Consider `Cc1cccc2c1c(Cc1ccc(-c3ccc(F)nc3)s1)cn2[C@@H]1O[C@H](CO)[C@@H](O)[C@H](O)[C@H]1O` [Example 49, 3-(5-(6-Fluoro-3-pyridyl)thiophen-2-yl-methyl)-4-methyl-1-(β-D-glucopyranosyl)indole], for which the IC50 in assay [1] was determined as 8.8 nM. On to `Cc1ccc(Cc2cn([C@@H]3O[C@H](CO)[C@@H](O)[C@H](O)[C@H]3O)c3cccc(Cl)c23)cc1` [Example 11, 4-Chloro-3-(4-methylphenylmethyl)-1-(β-D-glucopyranosyl)-indole], for which the IC50 in assay [1] was determined as 2.4 nM. `CCc1ccc(Cc2cn([C@@H]3O[C@H](CO)[C@@H](O)[C@H](O)[C@H]3O)c3cccc(Br)c23)cc1` [Example 22, 4-Bromo-3-(4-ethylphenylmethyl)-1-(β-D-glucopyranosyl)indole]: the IC50 in assay [1] worked out at 3.7 nM. For the compound `CCc1ccc(Cc2cn([C@@H]3O[C@H](CO)[C@@H](O)[C@H](O)[C@H]3O)c3cccc(Cl)c23)cc1` [Example 1, 4-Chloro-3-(4-ethylphenylmethyl)-1-(β-D-glucopyranosyl)-indole], the 50% inhibitory concentration (IC50) in assay [1] was 2.9 nM. Still for that read-out and setting: the same measure for `CCc1ccc(Cc2cn([C@@H]3O[C@H](CO)[C@@H](O)[C@H](O)[C@H]3O)c3cccc(C)c23)cc1` [Example 23, 3-(4-Ethylphenylmethyl)-4-methyl-1-(β-D-glucopyranosyl)-indole]: 1.1 nM. The same measure, in the same setting: the same measure for `CSc1ccc(Cc2cn([C@@H]3O[C@H](CO)[C@@H](O)[C@H](O)[C@H]3O)c3cccc(Cl)c23)cc1` [Example 4, 4-Chloro-3-(4-(methylthio)phenylmethyl)-1-(β-D-gluco-pyranosyl)indole]: 1.7 nM.

In the case of `Cc1cccc2c1c(Cc1ccc(-c3cccc(C#N)c3)s1)cn2[C@@H]1O[C@H](CO)[C@@H](O)[C@H](O)[C@H]1O` [Example 45, 3-(5-(3-Cyanophenyl)-thiophen-2-yl-methyl)-4-methyl-1-(β-D-glucopyranosyl)indole], the IC50 in assay [1] came to 2.5 nM. With `COc1ccc(Cc2cn([C@@H]3O[C@H](CO)[C@@H](O)[C@H](O)[C@H]3O)c3cccc(Cl)c23)cc1` [Example 5, 4-Chloro-3-(4-methoxyphenylmethyl)-1-(β-D-glucopyranosyl)-indole], in assay [1], the IC50 amounted to 1.8 nM. In the case of `Cc1cccc2c1c(Cc1ccc(-c3ccccc3)s1)cn2[C@@H]1O[C@H](CO)[C@@H](O)[C@H](O)[C@H]1O` [Example 50, 4-Methyl-3-(5-phenylthiophen-2-yl-methyl)-1-(β-D-gluco-pyranosyl)indole], the IC50 in assay [1] turned out to be 11 nM.

What is called IC50 is the concentration that gives 50% inhibition.
